The source of these data is paper PMC2630467 (Journal of medicinal chemistry, 2008).

Data set [1] addresses T1, CYP2C9 (Homo sapiens, UniProt P11712). Briefly: EPR studies on binding modes with ferric 2C9. The settings on record: ferric 2C9 18.5 μM, substrate 1 mM, 20 K.
The target in data set [2] is T1, CYP2C9. Nature of the data set: UV difference spectroscopy of binding and substrate titrations with purified 2C9. The settings on record: UV difference spectra 350-500 nm.
Data set [3] has as its target T1, CYP2C9. Briefly: Reconstituted purified 2C9 system inhibition. The class given is biochemical.

Molecules are shown by their SMILES. Entries after “also recorded” stand apart in the source; their conditions may differ.

T1 sequence (P11712 whole entry): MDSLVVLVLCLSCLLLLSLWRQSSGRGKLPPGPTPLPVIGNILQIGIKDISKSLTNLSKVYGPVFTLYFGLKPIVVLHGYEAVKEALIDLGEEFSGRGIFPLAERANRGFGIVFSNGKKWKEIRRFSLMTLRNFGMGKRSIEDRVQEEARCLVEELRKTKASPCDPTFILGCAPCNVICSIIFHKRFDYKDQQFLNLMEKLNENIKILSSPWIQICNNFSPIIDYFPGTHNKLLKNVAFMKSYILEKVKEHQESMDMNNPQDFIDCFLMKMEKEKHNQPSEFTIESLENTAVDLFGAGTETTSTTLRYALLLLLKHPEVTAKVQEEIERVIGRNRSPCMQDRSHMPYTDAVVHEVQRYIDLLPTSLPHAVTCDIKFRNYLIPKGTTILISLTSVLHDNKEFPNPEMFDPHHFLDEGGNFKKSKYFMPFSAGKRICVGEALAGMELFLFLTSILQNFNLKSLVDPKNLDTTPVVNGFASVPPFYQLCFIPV

With `O=C(Nc1ccc2ccccc2c1)c1cc(-c2ccncc2)nc2ccccc12` [Compound 7, N-(naphthalen-2-yl)-2-(pyridin-4-yl)quinoline-4-carboxamide], in data set [1], the “Binding Type EPR” value is recorded as “low-spin shift; also recorded: pure Type II”.

Take `O=C(Nc1ccc2ccccc2c1)c1cc(-c2ccccn2)nc2ccccc12` [Compound 9, N-(naphthalen-2-yl)-2-(pyridin-2-yl)quinoline-4-carboxamide]: in data set [1], the “Binding Type EPR” value is on record as “Type I”.

In the case of `O=C(Nc1ccccc1)c1cc(-c2cccnc2)nc2ccccc12` [Compound 14, N-phenyl-2-(pyridin-3-yl)quinoline-4-carboxamide], the “Binding Type UV” value in data set [2] was “mixed Type II and Type I binding modes”.

On to `Cc1cc(C)c2nc(-c3ccccn3)cc(C(=O)Nc3ccc4ccccc4c3)c2c1` [Compound 18, 6,8-dimethyl-N-(naphthalen-2-yl)-2-(pyridin-2-yl)quinoline-4-carboxamide], for which the “Binding Type EPR” value in data set [1] is listed as “Type I”.

With `O=C(Nc1ccc2ccccc2c1)c1cc(-c2cccnc2)nc2ccccc12` [Compound 8, N-(naphthalen-2-yl)-2-(pyridin-3-yl)quinoline-4-carboxamide], the “Binding Type EPR” value in data set [1] was “Type I”.

For `O=C(Nc1ccccc1)c1cc(-c2ccccn2)nc2ccccc12` [Compound 15, N-phenyl-2-(pyridin-2-yl)quinoline-4-carboxamide], the “Binding Type UV” value in data set [2] is “does not give a either a Type I or Type II binding spectra”.

As to `O=C(c1cc(-c2ccncc2)nc2ccccc12)N1CCCCC1` [Compound 1, Piperidin-1-yl(2-(pyridin-4-yl)quinolin-4-yl)methanone], the “Binding Type UV” value in data set [2] is given as “typical Type II binding spectra”. Further, the “Binding Type EPR” value in data set [1] was “Type II”.

Take `Cc1cc(C)c2nc(-c3cccnc3)cc(C(=O)Nc3ccc4ccccc4c3)c2c1` [Compound 17, 6,8-dimethyl-N-(naphthalen-2-yl)-2-(pyridin-3-yl)quinoline-4-carboxamide]: in data set [1], the “Binding Type EPR” value was “Type I”.

What is called Ki is the dissociation constant of the complex between target and ligand, obtained from inhibition or displacement. Higher therefore signals a looser hold on the target. In data set [3], `O=C(Nc1ccccc1)c1cc(-c2ccncc2)nc2ccccc12` [Compound 13, N-phenyl-2-(pyridin-4-yl)quinoline-4-carboxamide] registered an inhibition constant (Ki) of 0.0798 µM. For the same compound, the “Binding Type UV” value in data set [2] was “clear Type II binding spectra; also recorded: typical Type II binding spectra”.

As to `O=C(c1cc(-c2cccnc2)nc2ccccc12)N1CCCCC1` [Compound 2, Piperidin-1-yl(2-(pyridin-3-yl)quinolin-4-yl)methanone], the “Binding Type UV” value in data set [2] is “mixed Type I and Type II binding”. Moreover, in data set [1], the “Binding Type EPR” value is given as “Type I”.

`O=C(Nc1ccc2ccccc2c1)c1cc(-c2ccncc2)nc2ccc(Cl)cc12` [Compound 19, 6-chloro-N-(naphthalen-2-yl)-2-(pyridin-4-yl)quinoline-4-carboxamide]: the “Binding Type EPR” value in data set [1] is reported as “low-spin shift; also recorded: mixed mode; also recorded: Type II/Type I”.
